Laboratory results taken from patent publication US10221163B2 (priority 2015, dated 2019).
Like-named read-outs stand apart in the source and are kept apart here.

Assays:
[1] = test system: Pseudomonas aeruginosa efflux− (MB9799), IMP-1; assay type: cell-based; details: concentration restoring susceptibility to imipenem at 2 μg/mL in the presence of a class A, C, D serine β-lactamase inhibitor closely related to relebactam
How it was run: (§1)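 PAO1 pair, broth microdilution; fixed β-lactam (imipenem/ceftazidime) at ~CLSI breakpoint + fixed class A/C BLI for AmpC; serial MBLi titration; endpoint = MBLi conc. restoring susceptibility; MB9798:MB9799 ratio = efflux liability.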

NDM-1 = NDM-1 (Klebsiella pneumoniae, UniProt C7C422); test: biochemical; assay type: biochemical; details: fluorescence assay, CCF2-FA substrate, 1 pM enzyme, 2 hours at 25° C.; read-out: NDM-1 IC50
How it was run: (§2)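 Fluorescence assay of metallo-β-lactamase activity using CCF2-FA, a cephalosporin-linked 7-hydroxycoumarin–fluorescein substrate. Inhibitor, enzyme and substrate were incubated together for 2 hours at 25° C. IC50 came from a 4-parameter fit of inhibition versus inhibitor concentration.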

IMP-1 = IMP-1 (Serratia marcescens, UniProt P52699); test: biochemical; assay type: biochemical; details: fluorescence assay, CCF2-FA substrate, 2 pM enzyme, 2 hours at 25° C.; read-out: IMP-1 IC50
How it was run: as §2

[2] = test system: Serratia marcescens expressing IMP-1 (CL5741); assay type: cell-based; details: with imipenem 1 μg/ml; 95% inhibition of bacterial growth
How it was run: (§3)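 Colonies grown overnight on blood agar at 35° C were suspended in saline, diluted 1:100 into 1.1×CAMHB and dispensed. Imipenem was added to 1 μg/ml, then test compound. After 22 hours to 24 hours at 35° C, absorbance was recorded.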

[3] = test system: Escherichia coli expressing NDM-1 (CLB30005, CLB30016); assay type: cell-based; details: with imipenem 1 μg/ml; 95% inhibition of bacterial growth
How it was run: as §3

[4] = test system: Klebsiella pneumoniae expressing VIM-1 (IHMA599644); assay type: cell-based; details: with imipenem 1 μg/ml; 95% inhibition of bacterial growth
How it was run: as §3

VIM-1 = VIM-1 (Pseudomonas aeruginosa (strain ATCC 15692 / DSM 22644 / CIP 104116 / JCM 14847 / LMG 12228 / 1C / PRS 101 / PAO1), UniProt A0A0F7KYQ8); test: biochemical; details: CCF2-FA substrate, 30 pM enzyme, 2 hours at 25° C.
How it was run: as §2

[5] = test system: Pseudomonas aeruginosa efflux+ (MB9798), IMP-1; assay type: cell-based; details: concentration restoring susceptibility to imipenem at 2 μg/mL in the presence of a class A, C, D serine β-lactamase inhibitor closely related to relebactam
How it was run: as §1

[6] = test system: Pseudomonas aeruginosa MB9798 vs MB9799; details: ratio MITC95 PA_9798/MITC95 PA_9799
How it was run: as §1

[7] = fluorescence assay, read-out: VIM-1 IC50

NDM-1, sequence (C7C422 whole entry, looked up, species assumed): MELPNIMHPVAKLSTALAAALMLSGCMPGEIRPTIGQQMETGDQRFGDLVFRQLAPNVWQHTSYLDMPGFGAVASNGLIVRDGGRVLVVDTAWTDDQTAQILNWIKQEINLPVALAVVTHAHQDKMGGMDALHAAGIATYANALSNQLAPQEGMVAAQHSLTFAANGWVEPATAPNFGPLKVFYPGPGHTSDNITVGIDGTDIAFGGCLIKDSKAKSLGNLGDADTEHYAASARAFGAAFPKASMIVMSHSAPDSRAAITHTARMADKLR
IMP-1, sequence (P52699 whole entry, looked up, species assumed): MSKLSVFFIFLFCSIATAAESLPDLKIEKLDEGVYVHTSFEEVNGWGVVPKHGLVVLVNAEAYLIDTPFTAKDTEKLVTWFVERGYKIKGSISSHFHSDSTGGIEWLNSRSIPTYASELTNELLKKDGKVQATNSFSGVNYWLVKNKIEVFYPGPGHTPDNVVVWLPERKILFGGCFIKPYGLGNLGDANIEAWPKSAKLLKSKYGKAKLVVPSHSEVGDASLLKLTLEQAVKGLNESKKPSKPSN

SMILES | P. aeruginosa expressing IMP-1, efflux − (MB9799) MITC95 [1] [µM] | IC50 (NDM-1) [nM] | IC50 (IMP-1) [nM] | Serratia marcescens expressing IMP-1 (CL5741) MITC95 [2] [µM] | Escherichia coli expressing NDM-1 (CLB30016) MITC95 [3] [µM] | Klebsiella pneumoniae expressing VIM-1 (IHMA599644) MITC95 [4] [µM] | IC50 (VIM-1; [7]) [nM] | P. aeruginosa expressing IMP-1, efflux + (MB9798) MITC95 [5] [µM] | Efflux ratio [6] | IC50 (VIM-1; VIM-1 IC50, fluorescence assay) [nM]
NC(=O)[C@@H](N)CNS(=O)(=O)c1ccc(-c2cccc3[nH]c(N)nc23)c(-c2nn[nH]n2)c1S(N)(=O)=O [Example 189, (2S)-2-amino-3-(4-(2-amino-1H-benzo[d]imidazol-4-yl)-2-sulfamoyl-3-(2H-tetrazol-5-yl)phenylsulfonamido)propanamide] | 1.563 | 0.0718 | 0.615 | 1.563 | 0.7813 | 3.125 | 0.216 | 0.7813 | 0.50 | –
Nc1nc2c(-c3ccc(S(=O)(=O)NC[C@@H](N)CO)c(S(N)(=O)=O)c3-c3nn[nH]n3)cccc2[nH]1 [Example 190, 4-(2-amino-1H-benzo[d]imidazol-4-yl)-N1-((R)-2-amino-3-hydroxypropyl)-3-(2H-tetrazol-5-yl)benzene-1,2-disulfonamide] | 0.7813 | 0.059 | 0.624 | 0.3906 | 0.3906 | 0.7813 | 0.281 | 0.3906 | 0.50 | –
Nc1nc2c(-c3ccc(S(=O)(=O)NC[C@H](N)CO)c(S(N)(=O)=O)c3-c3nn[nH]n3)cccc2[nH]1 [Example 191, 4-(2-amino-1H-benzo[d]imidazol-4-yl)-N^1—((S)-2-amino-3-hydroxypropyl)-3-(2H-tetrazol-5-yl)benzene-1,2-disulfonamide] | 0.4453 | 0.0469 | 0.433 | 0.8906 | 0.25 | 0.8906 | 0.173 | 0.4453 | 1.00 | –
NS(=O)(=O)c1c(S(=O)(=O)N[C@@H]2CCNC2)ccc(-c2cccc3[nH]cnc23)c1-c1nn[nH]n1 [Example 193, 4-(1H-benzo[d]imidazol-4-yl)-N1-((R)-pyrrolidin-3-yl)-3-(2H-tetrazol-5-yl)benzene-1,2-disulfonamide] | 0.7813 | 0.0392 | 0.211 | 1.563 | 1.563 | 2.344 | 0.113 | 0.7813 | 1.00 | –
Nc1ccc(-c2ccc(S(=O)(=O)N[C@@H]3CCNC3)c(S(N)(=O)=O)c2-c2nn[nH]n2)cn1 [Example 194, (R)-4-(6-aminopyridin-3-yl)-N^1-(pyrrolidin-3-yl)-3-(2H-tetrazol-5-yl)benzene-1,2-disulfonamide] | 0.8542 | 0.105 | 0.242 | 0.5573 | 0.3203 | 2.229 | 0.123 | 0.6875 | 0.80 | –
Nc1ccc(-c2ccc(S(=O)(=O)N[C@H]3CCNC3)c(S(N)(=O)=O)c2-c2nn[nH]n2)cn1 [Example 195, (S)-4-(6-aminopyridin-3-yl)-N^1-(pyrrolidin-3-yl)-3-(2H-tetrazol-5-yl)benzene-1,2-disulfonamide] | 0.7813 | 0.169 | 0.523 | 0.5859 | 0.5859 | 1.563 | 0.182 | 0.7813 | 1.00 | –
NCCNS(=O)(=O)c1ccc(-c2ccc(N)nc2)c(-c2nn[nH]n2)c1S(N)(=O)=O [Example 196, N^1-(2-aminoethyl)-4-(6-aminopyridin-3-yl)-3-(2H-tetrazol-5-yl)benzene-1,2-disulfonamide] | 0.7656 | 0.328 | 0.479 | 0.2969 | 0.03125 | 1.336 | 0.218 | 0.7656 | 1.00 | –
NS(=O)(=O)c1c(S(=O)(=O)N[C@H]2CCNC2)ccc(-c2cccc3[nH]cnc23)c1-c1nn[nH]n1 [Example 197] | 0.7813 | 0.0764 | 0.395 | 1.172 | 2.344 | 3.125 | 0.145 | 0.7813 | 1.00 | –
NCCCNS(=O)(=O)c1ccc(-c2cccc3[nH]cnc23)c(-c2nn[nH]n2)c1S(N)(=O)=O [Example 198, N^1-(3-aminopropyl)-4-(1H-benzo[d]imidazol-4-yl)-3-(2H-tetrazol-5-yl)benzene-1,2-disulfonamide] | 0.7813 | 0.0592 | 0.293 | 1.172 | 1.172 | 2.344 | 0.135 | 0.7813 | 1.00 | –
NCCNS(=O)(=O)c1ccc(-c2cccc3[nH]cnc23)c(-c2nn[nH]n2)c1S(N)(=O)=O [Example 199, N^1-(2-aminoethyl)-4-(1H-benzo[d]imidazol-4-yl)-3-(2H-tetrazol-5-yl)benzene-1,2-disulfonamide] | 1.432 | 0.0257 | 0.102 | 1.042 | 1.042 | 2.865 | 0.0471 | 0.7813 | 0.55 | –
NS(=O)(=O)c1c(S(=O)(=O)N[C@H]2C[C@H](N)C2)ccc(-c2cccc3[nH]cnc23)c1-c1nn[nH]n1 [Example 200, N^1-((1r,3r)-3-aminocyclobutyl)-4-(1H-benzo[d]imidazol-4-yl)-3-(2H-tetrazol-5-yl)benzene-1,2-disulfonamide] | 0.7813 | 0.0527 | 0.276 | 1.563 | 1.563 | 3.125 | 0.114 | 0.7813 | 1.00 | –
NC[C@@H](CO)NS(=O)(=O)c1ccc(-c2cccc3sc(N)nc23)c(-c2nnn[nH]2)c1S(N)(=O)=O [Example 201, (S)—N^1-(1-amino-3-hydroxypropan-2-yl)-4-(2-aminobenzo[d]thiazol-4-yl)-3-(1H-tetrazol-5-yl)benzene-1,2-disulfonamide] | 1.563 | 0.0199 | 0.109 | 1.563 | 1.563 | 3.125 | – | 0.7813 | 0.50 | 0.125
NC[C@H](CO)NS(=O)(=O)c1ccc(-c2cccc3sc(N)nc23)c(-c2nnn[nH]2)c1S(N)(=O)=O [Example 202, (R)—N^1-(1-amino-3-hydroxypropan-2-yl)-4-(2-aminobenzo[d]thiazol-4-yl)-3-(1H-tetrazol-5-yl)benzene-1,2-disulfonamide] | 1.563 | 0.124 | 0.713 | 1.563 | 3.125 | 3.125 | – | 1.563 | 1.00 | 0.328
